Experimental data from patent US5734081A, “Arylthio compounds” (Warner-Lambert Company, priority 1995, dated 1998).

Assays:
HIV-1VIHU = test: Anti-HIV activity, clinical isolate HIV-1VIHU in PBL; assay type: cell-based; details: Human immunodeficiency virus 1
Protocol: (§1) The compounds of the invention were also evaluated against various other HIV strains and cell lines utilizing the assay methodology described above. The compounds were additionally evaluated against clinical isolates of HIV strains.

[1] = biological target: T1, HIV-1 Nucleocapsid Protein (NCp7) (Human immunodeficiency virus type 1 group M subtype B, UniProt P12493); test: Zinc extrusion assay (TSQ fluorescence) from the zinc fingers of HIV-1 nucleocapsid protein (NCp7); assay type: biochemical; details: 10 μM compound, 2.8 μM NCp7, pH 7.4, 26° C., 90 minutes
T1 construct: The NCp7 protein containing 2 Zn-fingers and 2 Zn ions is incubated with drug
Outline: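 Purified NCp7 (2.8 μM, 2 Zn ions) incubated with 10 μM compound and 47 μM TSQ at pH 7.4, 26° C, 90 min; released Zn read by TSQ fluorescence (ex 355, em 400 nm) over time. % extrusion = measured fluorescence over that for full theoretical Zn release (5.6 μM) ×100.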

HIV-1IIIb [2] = test: Anti-HIV activity, HIV-1IIIb in AA5 cells; assay type: cell-based; details: Human immunodeficiency virus 1; AA5, HIV-1IIIb
Protocol: as §1

HIV-1IIIb [3] = test: Anti-HIV activity, HIV-1IIIb in MT-2 cells; assay type: cell-based; details: Human immunodeficiency virus 1, MT2; MT-2, HIV-1IIIb
Protocol: as §1

HIV-1 = test: CEM cell assay, anti-HIV-1 activity; assay type: cell-based; details: Human immunodeficiency virus 1, CCRF-CEM, HIV-1, 6 or 7 days, read-out: EC50 (Effective Concentration which protects cells from viral cytopathic effects)
Outline: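 CEM T4 lymphocytes infected with HIV at virus:cell ratio ~0.05, then treated with half-log10 dilutions of compound from DMSO stock and incubated 6 or 7 days at 37° in 5% CO2. Protection from virus-induced cell killing was read by XTT formazan absorbance and microscopy versus drug-treated noninfected cells and untreated controls.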

HIV-1IIIb [4] = test: Anti-HIV activity, HIV-1IIIb in CEM cells; assay type: cell-based; details: CEM, HIV-1IIIb, read-out: EC50
Protocol: Yet another test system employed to determine antiviral activity is called the CEM cell assay.
T4 lymphocytes (CEM cell line) are exposed to HIV at a virus to cell ratio approximately 0.05, and plated along with noninfected control cells in 96-well microliter plates.
The candidate agent is dissolved in dimethyl sulfoxide (unless otherwise noted), then diluted 1:200 in cell culture medium. Further dilutions (half-log10) are prepared before adding to an equal volume of medium containing either infected or noninfected cells. Cultures are incubated at 37° in a 5% carbon dioxide atmosphere for 6 or 7 days. The tetrazolium salt, XTT, is added to all wells, and cultures are incubated to allow formazan color development by viable cells (J. National Cancer Institute, 1989;81:577-586). Individual wells are analyzed spectrophotometrically to quantitate formazan production, and in addition are viewed microscopically for detection of viable cells confirmation of protective activity.
Drug-tested virus-infected cells are compared with drug-treated noninfected cells and with other appropriate controls (untreated infected and untreated noninfected cells, drug-contain wells without cells, etc.) on the same plate. Data are reviewed in comparison with other tests done at the same time and a determination about activity is made.
as §1

HIV-1A17 = test: Anti-HIV activity, HIV-1A17 in MT-2 cells; assay type: cell-based; details: Human immunodeficiency virus 1, MT2
Protocol: as §1

HIV-16R = test: Anti-HIV activity, HIV-16R in MT-4 cells; assay type: cell-based, HIV-1; details: Human immunodeficiency virus 1, MT4
Protocol: as §1

[5] = Human immunodeficiency virus 1, CCRF-CEM

| Structure (SMILES) | EC50 (HIV-1VIHU) [nM] | % Zinc Extrusion Relative to Control [1] [%] | EC50 (HIV-1IIIb [2]) [nM] | EC50 (HIV-1IIIb [3]) [nM] | EC50 (HIV-1) [nM] | EC50 (HIV-1IIIb [4]; [5]) [nM] | EC50 (HIV-1A17) [nM] | EC50 (HIV-16R) [nM] | EC50 (HIV-1IIIb [4]) [nM] |
| --- | --- | --- | --- | --- | --- | --- | --- | --- | --- |
| CC(=O)Nc1ccc(SSc2ccc(NC(C)=O)cc2C(N)=O)c(C(N)=O)c1 [Example 9, 2,2'-Dithiobis(5-acetylamino)benzamide] | 5200 | 77 | 3500 | 9400 | 5200 | 400 | – | – | – |
| NS(=O)(=O)c1ccc(NC(=O)c2ccccc2SSc2ccccc2C(=O)Nc2ccc(S(N)(=O)=O)cc2)cc1 [Example 1] | 3600 | 20 | 900 | 2600 | 2900 | 2800 | 600 | 1900 | 4600 |
